Experiment [1] concerns MV-4-11 cells. Briefly: CCK-8 cell viability assay in MV-4-11 cells. It counts as cell-based. To be noted: 10% FBS, 3 days. Put shortly: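 IC50 values come from vehicle-normalized CCK-8 absorbance at 450 nm, read 1–4 h after reagent addition. Before that, MV-4-11 cells seeded at 20000 per well were cultured 3 days at 37 °C with a compound dilution series.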
(In general: Tetrazolium assays rely on reduction of a dye to a coloured formazan, in cell work by metabolically active cells.)

In experiment [2] the test system is RS4; 11Bcl-2-G101V cells. Briefly: CellTiter-Glo (CTG) cell viability assay in RS4;11-Bcl-2-G101V cells. It counts as cell-based. To be noted: 10% FBS, 3 days. Put shortly: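 Luminescent ATP read-out (CellTiter-Glo) after 3-day compound treatment at 37 °C gave viability relative to vehicle, from which IC50 was fitted. Mutant Bcl-2 RS4;11 cells were seeded at 10000 per well and rested 4 h before dosing.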
For orientation: Cellular ATP, detected with luciferase, serves as a proxy for viable cell number.

Experiment [3] has as its system RS4; 11Bcl-2-V156D cells. The experiment in a line: CellTiter-Glo (CTG) cell viability assay in RS4;11-BCL2-V156D cells. The format is cell-based. To be noted: 10% FBS, 3 days. As to the method:
(§1) RS4; 11Bcl-2-G101V, RS4; 11Bcl-2-D103E, RS4; 11Bcl-2-V156D and RS4; 11Bcl-2-G101V-D103E cells were obtained from Cobioer Biosciences. Cells were maintained in the RPMI-1640 medium with 10% FBS, 1% P/S and puromycin (1 μg/mL) at 37° C. and an atmosphere of 5% CO2.
(§2) • The effect of representative Compounds of the Disclosure on cell viability was determined using CellTiter-Glo® (CTG) luminescent cell viability assay (Promega, USA) according to the manufacturer's instructions. 95 μL of cell suspension (10000 cells/well) in culture medium were seeded into 96-well plates and cultured 4 hours. Each tested compound was serially diluted in blank culture medium, and 5 μL of the compound dilution was added to the corresponding well of the cell plate. After the addition of the tested compound, the cells were incubated at 37° C. in an atmosphere of 5% CO2 for 3 days. At the end of 3 days, 30 μL of CTG solution was added to each well of the plate and mix contents for 2 minutes on an orbital shaker. Allow the plate to incubate at room temperature for 15 mins to stabilize signal and record RLU on the Biotek plate reader. The readings were normalized to the vehicle cells, and the IC50 was calculated using GraphPad Prism 8 software.

In experiment [4] the test system is RS4; 11Bcl-2-D103E cells. Briefly: CellTiter-Glo (CTG) cell viability assay in RS4;11-BCL2-D103E cells. The format is cell-based. To be noted: 10% FBS, 3 days. On the procedure:
as §1, §2

The target of experiment [5] is Bcl-2 WT (Homo sapiens, UniProt P10415). The experiment in a line: Bcl-2 WT inhibition, fluorescence polarization (Flu-BIM tracer) binding assay. To be noted: FP; 20 nM Bcl2, 5 nM Flu-BIM, 1 h incubation; read-out: Bcl-2 w.t. (FP). On the technique in general: Fluorescence polarisation rises when a labelled molecule tumbles more slowly, as on binding a larger partner.
Chain of Bcl-2 WT (P10415 whole entry): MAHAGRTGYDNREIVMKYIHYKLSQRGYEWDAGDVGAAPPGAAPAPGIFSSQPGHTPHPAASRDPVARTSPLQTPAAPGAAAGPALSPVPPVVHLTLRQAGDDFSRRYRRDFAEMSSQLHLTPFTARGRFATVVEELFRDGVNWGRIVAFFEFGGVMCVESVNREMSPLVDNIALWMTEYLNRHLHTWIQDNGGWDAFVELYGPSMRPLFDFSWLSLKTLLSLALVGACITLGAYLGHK

For the compound `CC1(C)CCC(CN2CCN(c3ccc(C(=O)NS(=O)(=O)c4ccc(NCC5CCOCC5)c([N+](=O)[O-])c4)c(Oc4cnc5[nH]ccc5c4)c3)CC2)=C(c2ccc(Cl)cc2)C1` [ABT-199, Venetoclax, reference compound], the IC50 in experiment [1] (Homo sapiens, MV4-11, 72 h) came to 38 nM; in experiment [2] (72 h), 2690 nM; in experiment [3] (72 h), 671 nM; in experiment [4] (72 h) it was 1510 nM.
For `O=C(NS(=O)(=O)c1ccc(NC[C@H]2COCCO2)c([N+](=O)[O-])c1)c1ccc(N2CCN(CC3=C(c4ccc(Cl)cc4)CC4(CCC4)CC3)CC2)cc1Oc1cnc2[nH]ccc2c1` [APG-2575], the IC50 in experiment [1] came out at 34 nM; in experiment [2], 2430 nM; in experiment [3], 324 nM; in experiment [4], 516 nM.
As for `CC1(C)CCC(CN2CCN(c3ccc(C(=O)NS(=O)(=O)c4ccc(NC[C@H]5CC[C@](C)(O)CC5)c([N+](=O)[O-])c4)c(Oc4cnc5[nH]ccc5c4)c3)CC2)=C(c2cc(-c3c(F)cc(C(C)(C)O)cc3F)cs2)C1` [Example 63, 2-((1H-pyrrolo[2,3-b]pyridin-5-yl)oxy)-4-(4-((2-(4-(2,6-difluoro-4-(2-hydroxypropan-2-yl)phenyl)thiophen-2-yl)-4,4-dimethylcyclohex-1-en-1-yl)methyl)piperazin-1-yl)-N-((4-((((1r,4r)-4-hydroxy-4-methylcyclohexyl)methyl)amino)-3-nitrophenyl)sulfonyl)benzamide], the IC50 in experiment [5] is 16.3 nM; in experiment [1] (Homo sapiens, MV4-11, 72 h), 9 nM; in experiment [2] (72 h), 14 nM; in experiment [3] (72 h), 19 nM; in experiment [4] (72 h), 183 nM.
Turning to `C[C@@H](O)c1cc(F)c(-c2csc(C3=C(CN4CCN(c5ccc(C(=O)NS(=O)(=O)c6ccc(NC[C@H]7CC[C@](C)(O)CC7)c([N+](=O)[O-])c6)c(Oc6cnc7[nH]ccc7c6)c5)CC4)CCC(C)(C)C3)c2)c(F)c1` [Example 83, 2-((1H-pyrrolo[2,3-b]pyridin-5-yl)oxy)-4-(4-((2-(4-(2,6-difluoro-4-((R)-1-hydroxyethyl)phenyl)thiophen-2-yl)-4,4-dimethylcyclohex-1-en-1-yl)methyl)piperazin-1-yl)-N-((4-((((1r,4r)-4-hydroxy-4-methylcyclohexyl)methyl)amino)-3-nitrophenyl)sulfonyl)benzamide], the IC50 in experiment [1] (Homo sapiens, MV4-11, 72 h) was found to be 2 nM; in experiment [2] (72 h) it was 20 nM; in experiment [3] (72 h), 8 nM; in experiment [4] (72 h), 48 nM.
As for `C[C@H](O)c1cc(F)c(-c2csc(C3=C(CN4CCN(c5ccc(C(=O)NS(=O)(=O)c6ccc(NC[C@H]7CC[C@](C)(O)CC7)c([N+](=O)[O-])c6)c(Oc6cnc7[nH]ccc7c6)c5)CC4)CCC(C)(C)C3)c2)c(F)c1` [Example 84, 2-((1H-pyrrolo[2,3-b]pyridin-5-yl)oxy)-4-(4-((2-(4-(2,6-difluoro-4-((S)-1-hydroxyethyl)phenyl)thiophen-2-yl)-4,4-dimethylcyclohex-1-en-1-yl)methyl)piperazin-1-yl)-N-((4-((((1r,4r)-4-hydroxy-4-methylcyclohexyl)methyl)amino)-3-nitrophenyl)sulfonyl)benzamide], the IC50 worked out at 7 nM in experiment [1] (Homo sapiens, MV4-11, 72 h); 70 nM in experiment [2] (72 h); 8 nM in experiment [3] (72 h); 98 nM in experiment [4] (72 h).

(Values after patent US12577245B2, “Sulfonyl benzamide derivatives as Bcl-2 inhibitors” (ASCENTAGE PHARMA (SUZHOU) CO., LTD., priority 2021, dated 2026).)
